# Key:
# Format in all cases: physicochemical
# [1] = Dissolution of compressed tablets in water (Example 10); details: compressed tablets of ivermectin alone
# Procedure: The dissolution of said tablets to yield a clear infinitely diluable aqueous solution of ivermectin is very rapid (15 minutes with gentle agitation).
# [2] = Dissolution rate, solution/adsorption products versus comparison (Example 11); details: added alone or dissolved in glycerol formal to an aqueous surfactant solution
# Description: 37 parts of each of the solutions produced in Examples 5 and 6 is dry blended with I part of Accurel powder (50-75% void space). This mixture is then blended with 12 parts of Cab-O-Sil to produce a dry free-flowing powder which may be used as such or tableted as in Example 10.
# [3] = Dissolution of thermoplastic solids in deionized distilled water (Example 12); details: ivermectin into an aqueous solution of an equivalent amount of thermoplastic surfactant
# [4] = Solubility in deionized distilled water (Example 14)
# Procedure: A solution of 5% (50 mg/ml) w/v ivermectin is prepared by dissolving the product in Examples 1-5 and 7-9 in sufficient deionized distilled water. A mixture of an equivalent amount of ivermectin in deonized distilled water is only marginally soluble (1-4 mcg/ml). Therefore, the solubility of a poorly water soluble drug is enhanced (50,000 mcg/ml).
substance,measurement,setting,value
ivermectin,time within which tablets do not dissolve or disintegrate,[1],> 3 days
same,dissolution rates compared with the invention,[2],less than those observed with the invention
same,dissolution rate compared with the method of the invention,[3],significantly slower
same,solubility,[4],1 to 4 µg/mL
